In series [1] the test system is Daphnia magna. Description: Insecticidal activity against Daphnia magna after 48 hr. In kind it is functional, organism-based.
Series [2] concerns Cheumatopsyche. Description: Insecticidal activity against first-instar larvae of Cheumatopsyche brevilineata after 48 hr. It is filed as functional, organism-based.
Series [3] in a line: Octanol-water partition coefficient, log KOW of the compound.
The subject of series [4] is Daphnia pulex. Description: Insecticidal activity against Daphnia pulex after 48 hr. It is filed as functional, organism-based.

Values after ≈ are worked out from the molar mass of the structure shown.

The EC50 is the concentration that produces a half-maximal response. The low end stands for higher potency in that assay, the high end for lower potency in that assay. What is called logP is a log measure of how a compound divides between an organic and an aqueous phase. Lower therefore signals lower lipophilicity. For orientation: LC50 means the concentration that kills 50% of the test population.

As for `COP(=S)(OC)Oc1ccc(SC)c(C)c1` [FENTHION], the EC50 came out at 5.2 ng/mL (≈ 0.0187 µM) in series [1] and 2.14 ng/mL (≈ 0.00769 µM) in series [2].
The like results for `CCOP(=S)(OCC)Oc1cc(C)nc(C(C)C)n1` [DIMPYLATE] were, in that order, 0.87 ng/mL (≈ 0.00286 µM) and 1.77 ng/mL (≈ 0.00582 µM).
Regarding `N#Cc1nn(-c2c(Cl)cc(C(F)(F)F)cc2Cl)c(N)c1[S+]([O-])C(F)(F)F` (stereo unspecified) [FIPRONIL], the figures for the EC50 in series [1] and in series [2] were 190 ng/mL (≈ 0.435 µM) and 0.153 ng/mL (≈ 0.00035 µM), respectively.
The corresponding values for `CN/C(=N\[N+](=O)[O-])NCc1cnc(Cl)s1` [CLOTHIANIDINE] are above 119000 ng/mL and 4.44 ng/mL (≈ 0.0178 µM).
The corresponding values for `N#C/N=C1\SCCN1Cc1ccc(Cl)nc1` [THIACLOPRID] are 22520 ng/mL (≈ 89.1 µM) and 5.27 ng/mL (≈ 0.0209 µM).
Consider `CC1=NNC(=O)N(/N=C/c2cccnc2)C1` [PYMETROZINE], for which the EC50 came to 87000 ng/mL (≈ 400 µM) in series [1] and 112000 ng/mL (≈ 516 µM) in series [2].
The corresponding values for `CCOc1ccc([Si](C)(C)CCCc2ccc(F)c(Oc3ccccc3)c2)cc1` [SILAFLUOFEN] are 1.2 ng/mL (≈ 0.00294 µM) and 0.6 ng/mL (≈ 0.00147 µM).
For `CN(C)C1CSSSC1.O=C(O)C(=O)O` [THIOCYCLAM HYDROGEN OXALATE], the logP in series [3] is -0.07. Besides, the EC50 in series [4] was determined as 2010 ng/mL; in series [2], 5.76 ng/mL.
On to `CNC(=O)Oc1cc(C)cc(C)c1`, for which the logP in series [3] came to 2.3. In addition, the EC50 in series [1] was 30 ng/mL (≈ 0.167 µM); in series [2], 58.9 ng/mL (≈ 0.329 µM).
In series [3], `CCCCN(CCCC)SN(C)C(=O)Oc1cccc2c1OC(C)(C)C2` [CARBOSULFAN] gave a logP of 5.4. For the same compound, the EC50 in series [4] stood at 1.03 ng/mL (≈ 0.00271 µM); in series [2], 1.49 ng/mL (≈ 0.00392 µM).
Regarding `O=[N+]([O-])/N=C1\NCCN1Cc1ccc(Cl)nc1` [IMIDACLOPRID], the EC50 in series [1] was 85200 ng/mL (≈ 333 µM); in series [2], 4.22 ng/mL (≈ 0.0165 µM).
`CCOC(=O)CCN(SN(C)C(=O)Oc1cccc2c1OC(C)(C)C2)C(C)C` [BENFURACARB] yielded a logP in series [3] of 4.22. Also, the EC50 is 9.9 ng/mL (≈ 0.0241 µM) in series [1] and 6.66 ng/mL (≈ 0.0162 µM) in series [2].
Regarding `CN(C)C(CSC(N)=O)CSC(N)=O.Cl` [CARTAP HYDROCHLORIDE], the EC50 was 65 ng/mL in series [1] and 3.7 ng/mL in series [2].
`CNC(=O)ON=C(C)SC` [METHOMYL] showed a logP in series [3] of 0.093. The EC50 worked out at 8.8 ng/mL (≈ 0.0542 µM) in series [1] and 68.1 ng/mL (≈ 0.42 µM) in series [2].
The like results for `CC(C)N1C(=O)N(c2ccccc2)CS/C1=N\C(C)(C)C` [BUPROFEZIN] were, in that order, 4.3, above 420 ng/mL and 181 ng/mL (≈ 0.593 µM).
The like results for `C/C(=N\C#N)N(C)Cc1ccc(Cl)nc1` were, in that order, 0.8, 50000 ng/mL (≈ 225 µM) and 3.35 ng/mL (≈ 0.015 µM).
For the compound `CCN(Cc1ccc(Cl)nc1)/C(=C/[N+](=O)[O-])NC`, the EC50 is above 100000 ng/mL in series [1] and 45 ng/mL (≈ 0.166 µM) in series [2].
With `COP(=S)(OC)Oc1ccc([N+](=O)[O-])c(C)c1` [FENITROTHION], the logP in series [3] came to 3.43. Besides, the EC50 is 11 ng/mL (≈ 0.0397 µM) in series [1] and 7.78 ng/mL (≈ 0.0281 µM) in series [2].
`CCOC(=O)C(SP(=S)(OC)OC)c1ccccc1` (stereo unspecified) [PHENTHOATE]: the EC50 was 0.34 ng/mL (≈ 0.00106 µM) in series [1] and 0.88 ng/mL (≈ 0.00275 µM) in series [2].
The like results for `COP(=O)(OC)C(O)C(Cl)(Cl)Cl` (stereo unspecified) [TRICHLORFON] were, in that order, 0.36 ng/mL (≈ 0.0014 µM) and 2.02 ng/mL (≈ 0.00785 µM).
In series [3], `COP(=O)(OC)OC=C(Cl)Cl` [DICHLORVOS] displayed a log partition coefficient (logP) of 1.9. Further, the results for the EC50 in series [1] and in series [2] were 0.2 ng/mL (≈ 0.000905 µM) and 1.17 ng/mL (≈ 0.00529 µM), respectively.
The corresponding values for `CS/C(C)=N\OC(=O)N(C)SN(C)C(=O)O/N=C(\C)SC` [THIODICARB] are 1.62, 27 ng/mL (≈ 0.0762 µM) and 145 ng/mL (≈ 0.409 µM).
For `CN/C(=N/CC1CCOC1)N[N+](=O)[O-]` (stereo unspecified) [DINOTEFURAN], in series [3], the “log KOW” value is recorded as -0.644. Moreover, the EC50 is above 968300 ng/mL in series [1] and 10.4 ng/mL (≈ 0.0514 µM) in series [2].
`CCc1ccc(C(=O)NN(C(=O)c2cc(C)cc(C)c2)C(C)(C)C)cc1` [TEBUFENOZIDE]: the results for the EC50 in series [1] and in series [2] were 3800 ng/mL (≈ 10.8 µM) and above 830 ng/mL, respectively.
The corresponding values for `CCOc1ccc(C(C)(C)COCc2cccc(Oc3ccccc3)c2)cc1` [ETOFENPROX] are 0.57 ng/mL (≈ 0.00151 µM) and 0.116 ng/mL (≈ 0.000308 µM).
As for `CC1(C)C(C=C(Cl)Cl)C1C(=O)OCc1cccc(Oc2ccccc2)c1` (stereo unspecified) [PERMETHRIN], the “log KOW” value in series [3] is on record as 6.1. Also, the EC50 amounted to 0.6 ng/mL (≈ 0.00153 µM) in series [1] and 0.205 ng/mL (≈ 0.000524 µM) in series [2].
Take `CCOC(=O)CC(SP(=S)(OC)OC)C(=O)OCC` (stereo unspecified) [MALATHION]: in series [3], the logP turned out to be 2.75. Further, the EC50 in series [1] is 1 ng/mL (≈ 0.00303 µM); in series [2], 1.81 ng/mL (≈ 0.00548 µM).
The like results for `CNC(=O)Oc1cccc2ccccc12` [CARBARIL] were, in that order, 1.85, 5.6 ng/mL (≈ 0.0278 µM) and 21.4 ng/mL (≈ 0.106 µM).
As to `CN(C)C(CSS(=O)(=O)c1ccccc1)CSS(=O)(=O)c1ccccc1` [BENSULTAP], the logP in series [3] was 2.28. In series [1] (Daphnia magna, 48 h), this compound had an LC50 of 200 ng/mL (≈ 0.463 µM). In series [2], this compound yielded an EC50 of 148 ng/mL (≈ 0.343 µM).
Turning to `CCC(C)c1ccccc1OC(=O)NC` (stereo unspecified) [FENOBUCARB], the logP in series [3] came out at 2.79. Also, the EC50 in series [4] turned out to be 10.3 ng/mL (≈ 0.0497 µM); in series [2], 9.48 ng/mL (≈ 0.0457 µM).

Source of the values: ChEMBL document CHEMBL3046240, “A useful new insecticide bioassay using first-instar larvae of a net-spinning caddisfly, Cheumatopsyche brevilineata (Trichoptera: Hydropsychidae)” (J Pestic Sci, 2009).
